In patent publication US11440923B2, “Substituted macrocyclic indole derivatives” (Bayer Aktiengesellschaft, priority 2017, dated 2022):
pEC50, pIC50: −log10 of the molar value. Structures can show the parent of a compound that is named as a salt. Where two headings read alike, the source gives them in different places.

Experiments:
Assay type in all cases: cell-based
SUDHL10 cells [1] = assay: Induction of cytotoxicity in SUDHL10 cells (Assay 6); conditions: 5 h, CellTiter-Glo, read-out: Cytotox SUDHL10 IC50 (median)
In short: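 Run alongside apoptosis measurements, this cytotoxicity readout used cells treated with compound for 5 h at 37 °C and quantified ATP-based luminescence with CellTiter-Glo.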

SUDHL5 cells [2] = assay: Induction of caspase-3/7 activity in SUDHL5 cells (Assay 4)
In short: (§1)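 Read-out: Caspase-Glo 3/7 luminescence (1 h, 37 °C) after cells, plated overnight, were treated with compounds for 3 h at 37 °C. Signal corrected for cell-free medium background and expressed relative to DMSO control mean.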

SUDHL5 cells [3] = assay: Antiproliferation assay SUDHL5 (Assay 7); conditions: read-out: Antiproli SUDHL5 IC50 (median), 72 h, CellTiter-Glo
In short: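 Cells were plated overnight at 37° C, then compound-treated for 72 h. Viability was measured by CellTiter-Glo luminescence.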

SUDHL10 cells [4] = assay: Induction of caspase-3/7 activity in SUDHL10 cells (Assay 4)
In short: as §1

[5] = read-out: Caspase SUDHL5 EC50 (median), caspase-3/7 induction, 3 h
[6] = read-out: Caspase SUDHL10 EC50 (median), caspase-3/7 induction, 3 h
[7] = Homo sapiens, SU-DHL-5, 3 h, caspase-3/7 induction, 3 h, read-out: Caspase SUDHL5 EC50 (median)
[8] = Homo sapiens, SU-DHL10, 3 h, caspase-3/7 induction, 3 h, read-out: Caspase SUDHL10 EC50 (median)

Structure (SMILES) | pIC50 (SUDHL10 cells [1]) | pEC50 (SUDHL5 cells [2]; [5]) | pEC50 (SUDHL10 cells [4]; [6]) | pIC50 (SUDHL10 cells [1]; Homo sapiens, SU-DHL10, 5 h) | further results
CCc1c2c(nn1C)C(CCN1CCC(F)(F)C1)OCCCCn1c(C(=O)O)c(CCCOc3cccc4cc(F)ccc34)c3ccc(Cl)c-2c31 (single isomer, unassigned; enantiomer 1) [Example 56, 4-chloro-15-[2-(3,3-difluoropyrrolidin-1-yl)ethyl]-3-ethyl-7-{3-[(6-fluoronaphthalen-1-yl)oxy]propyl}-2-methyl-2,10,11,12,13,15-hexahydropyrazolo[4′,3′:9,10][1,6]oxazacycloundecino[8,7,6-hi]indole-8-carboxylic Acid—N-ethylethanamine Salt (Enantiomer 1)] | 7.41 | 7.74 | 7.70 | – | pIC50 (SUDHL5 cells [3]): 7.06
Cc1c2c(nn1C)C(CCN1CCOCC1)OCCCCn1c(C(=O)O)c(CCCOc3cccc4cc(F)ccc34)c3ccc(Cl)c-2c31 (single isomer, unassigned; enantiomer 2) [Example 18, 4-chloro-7-{3-[(6-fluoronaphthalen-1-yl)oxy]propyl}-2,3-dimethyl-15-[2-(morpholin-4-yl)ethyl]-2,10,11,12,13,15-hexahydropyrazolo[4′,3′:9,10][1,6]oxazacycloundecino[8,7,6-hi]indole-8-carboxylic Acid (Enantiomer 2)] | – | – | – | 6.11 | pEC50 (SUDHL5 cells [2]; [7]): 6.28; pEC50 (SUDHL10 cells [4]; [8]): 5.64
Cc1c2c(nn1C)C(C1CC1)OCCCCn1c(C(=O)O)c(CCCOc3cccc4ccccc34)c3ccc(Cl)c-2c31 (racemic) [Example 28, (rac)-4-Chloro-15-cyclopropyl-2,3-dimethyl-7-{3-[(naphthalen-1-yl)oxy]propyl}-2,10,11,12,13,15-hexahydropyrazolo[4′,3′:9,10][1,6]oxazacycloundecino[8,7,6-hi]indole-8-carboxylic Acid] | – | – | – | 5.08 | pEC50 (SUDHL5 cells [2]; [7]): 5.55; pIC50 (SUDHL5 cells [3]; Homo sapiens, SU-DHL-5, 72 h): 5.57; pEC50 (SUDHL10 cells [4]; [8]): 5.14
CCc1c2c(nn1C)C(CCOC)OCCCCn1c(C(=O)O)c(CCCOc3cccc4cc(F)ccc34)c3ccc(Cl)c-2c31 (single isomer, unassigned; enantiomer 2) [Example 43, (−)-4-chloro-3-ethyl-7-{3-[(6-fluoronaphthalen-1-yl)oxy]propyl}-15-(2-methoxyethyl)-2-methyl-2,10,11,12,13,15-hexahydropyrazolo[4′,3′:9,10][1,6]oxazacycloundecino[8,7,6-hi]indole-8-carboxylic Acid—N-ethylethanamine Salt (Enantiomer 2)] | 4.72 | 4.70 | 4.62 | – | –
Cc1c2c(nn1C)C(C)OCCCCn1c(C(=O)O)c(CCCOc3cccc4ccccc34)c3cccc-2c31 (racemic) [Example 1, (rac)-2,3,15-trimethyl-7-[3-(naphthalen-1-yloxy)propyl]-2,10,11,12,13,15-hexahydropyrazolo[4′,3′:9,10][1,6]oxazacycloundecino[8,7,6-hi]indole-8-carboxylic Acid (Mixture of Stereoisomers)] | – | – | – | 5.18 | pEC50 (SUDHL5 cells [2]; [7]): 5.64; pIC50 (SUDHL5 cells [3]; Homo sapiens, SU-DHL-5, 72 h): 5.82; pEC50 (SUDHL10 cells [4]; [8]): 5.23
CCC1OCCCCn2c(C(=O)O)c(CCCOc3cccc4ccccc34)c3ccc(Cl)c(c32)-c2c1nn(C)c2C (single isomer, unassigned; enantiomer 1) [Example 29, (+)-4-chloro-15-ethyl-2,3-dimethyl-7-{3-[(naphthalen-1-yl)oxy]propyl}-2,10,11,12,13,15-hexahydropyrazolo[4′,3′:9,10][1,6]oxazacycloundecino[8,7,6-hi]indole-8-carboxylic Acid—N-ethylethanamine Salt (Enantiomer 1)] | 5.41 | 6.08 | 5.43 | – | –
CCc1c2c(nn1C)C(CCN1CCN(C)CC1)OCCCCn1c(C(=O)O)c(CCCOc3cccc4cc(F)ccc34)c3ccc(Cl)c-2c31 (racemic) [Example 71, (rac)-4-chloro-3-ethyl-7-{3-[(6-fluoronaphthalen-1-yl)oxy]propyl}-2-methyl-(15-rac)-[2-(4-methylpiperazin-1-yl)ethyl]-2,10,11,12,13,15-hexahydropyrazolo[4′,3′:9,10][1,6]oxazacycloundecino[8,7,6-hi]indole-8-carboxylic Acid—N-ethylethanamine Salt (Mixture 2 Od Stereoisomers)] | 7.44 | – | 7.39 | – | –
CCc1c2c(nn1C)C(C(F)(F)F)OCCCCn1c(C(=O)O)c(CCCOc3cccc4ccccc34)c3ccc(Cl)c-2c31 (single isomer, unassigned; enantiomer 1) [Example 33, (+)-4-chloro-3-ethyl-2-methyl-7-{3-[(naphthalen-1-yl)oxy]propyl}-15-(trifluoromethyl)-2,10,11,12,13,15-hexahydropyrazolo[4′,3′:9,10][1,6]oxazacycloundecino[8,7,6-hi]indole-8-carboxylic Acid—N-ethylethanamine Salt (Enantiomer 1)] | 5.43 | 5.74 | 5.35 | – | –
CCc1c2c(nn1C)C(CCO)OCCCCn1c(C(=O)O)c(CCCOc3cccc4cc(F)ccc34)c3ccc(Cl)c-2c31 (single isomer, unassigned; enantiomer 2) [Example 46, (−)-4-chloro-3-ethyl-7-{3-[(6-fluoronaphthalen-1-yl)oxy]propyl}-15-(2-hydroxyethyl)-2-methyl-2,10,11,12,13,15-hexahydropyrazolo[4′,3′:9,10][1,6]oxazacycloundecino[8,7,6-hi]indole-8-carboxylic Acid (Enantiomer 2)] | 5.26 | – | – | – | pEC50 (SUDHL5 cells [2]; caspase-3/7 induction, 3 h, read-out: Caspase SUDHL5 EC50 (median)): 5.31; pEC50 (SUDHL10 cells [4]; caspase-3/7 induction, 3 h, read-out: Caspase SUDHL10 EC50 (median)): 5.40
CCC1OCCCCn2c(C(=O)O)c(CCCOc3cccc4ccccc34)c3ccc(Cl)c(c32)-c2c1nn(C)c2C (single isomer, unassigned; enantiomer 2) [Example 30, (−)-4-chloro-15-ethyl-2,3-dimethyl-7-{3-[(naphthalen-1-yl)oxy]propyl}-2,10,11,12,13,15-hexahydropyrazolo[4′,3′:9,10][1,6]oxazacycloundecino[8,7,6-hi]indole-8-carboxylic Acid—N-ethylethanamine Salt (Enantiomer 2)] | < 4.48 | < 4.48 | < 4.48 | – | –
Cc1c2c(nn1C)C(C1CC1)OCCCCn1c(C(=O)O)c(CCCOc3cccc4ccccc34)c3ccc(Cl)c-2c31 (single isomer, unassigned; enantiomer 2) [Example 36, (−)-4-chloro-15-cyclopropyl-2,3-dimethyl-7-{3-[(naphthalen-1-yl)oxy]propyl}-2,10,11,12,13,15-hexahydropyrazolo[4′,3′:9,10][1,6]oxazacycloundecino[8,7,6-hi]indole-8-carboxylic Acid N-ethylethanamine Salt (Enantiomer 2)] | 4.57 | < 4.48 | 4.57 | – | –
Cc1c2c(nn1C)C(CCN1CCOCC1)OCCCCn1c(C(=O)O)c(CCCOc3cccc4cc(F)ccc34)c3ccc(Cl)c-2c31 (single isomer, unassigned; enantiomer 1) [Example 17, 4-chloro-7-{3-[(6-fluoronaphthalen-1-yl)oxy]propyl}-2,3-dimethyl-15-[2-(morpholin-4-yl)ethyl]-2,10,11,12,13,15-hexahydropyrazolo[4′,3′:9,10][1,6]oxazacycloundecino[8,7,6-hi]indole-8-carboxylic Acid—N-ethylethanamine (Enantiomer 1)] | – | – | – | 8.03 | pEC50 (SUDHL5 cells [2]; Homo sapiens, SU-DHL-5, 3 h, read-out: Caspase SUDHL5 EC50 (median), caspase-3/7 induction, 3 h): 8.24; pEC50 (SUDHL10 cells [4]; Homo sapiens, SU-DHL10, 3 h, read-out: Caspase SUDHL10 EC50 (median), caspase-3/7 induction, 3 h): 8.01
CCc1c2c(nn1C)C(CCN1CCN(C)CC1)OCCCCn1c(C(=O)O)c(CCCOc3cccc4cc(F)ccc34)c3ccc(Cl)c-2c31 (racemic) [Example 68, 4-chloro-3-ethyl-7-{3-[(6-fluoronaphthalen-1-yl)oxy]propyl}-2-methyl-(15-rac)-[2-(4-methylpiperazin-1-yl)ethyl]-2,10,11,12,13,15-hexahydropyrazolo[4′,3′:9,10][1,6]oxazacycloundecino[8,7,6-hi]indole-8-carboxylic Acid—N-ethylethanamine Salt (Mixture 1 of Stereoisomers)] | 6.82 | – | 7.09 | – | –
CCc1c2c(nn1C)C(C1CC1)OCCCCn1c(C(=O)O)c(CCCOc3cccc4cc(F)ccc34)c3ccc(Cl)c-2c31 (racemic) [Example 38, (rac)-4-chloro-(15-rac)-cyclopropyl-3-ethyl-7-{3-[(6-fluoronaphthalen-1-yl)oxy]propyl}-2-methyl-2,10,11,12,13,15-hexahydropyrazolo[4′,3′:9,10][1,6]oxazacycloundecino[8,7,6-hi]indole-8-carboxylic Acid] | – | – | – | 5.20 | pEC50 (SUDHL5 cells [2]; [7]): 5.44; pEC50 (SUDHL10 cells [4]; [8]): 5.28
